Like-named read-outs stand apart in the source and are kept apart here.
Experiments:
Human opiate κ receptors [1] = target: T1, Human opiate κ receptors (Homo sapiens, UniProt P41145); format: binding; design: expressed in transfected cells; host or cells: HEK-293 cell membranes
Human opiate κ receptors [2] = target: T1, Human opiate κ receptors; test: κ opioid receptor functional assay, [35S]GTPγS binding (assay C); format: biochemical; details: for activation at 1 µM: 0.5 h, read-out: % activation functional assay at 1 μM
[3] = read-out: EC50 (nM) [35S]GTPγS binding

T1 sequence (P41145 whole entry): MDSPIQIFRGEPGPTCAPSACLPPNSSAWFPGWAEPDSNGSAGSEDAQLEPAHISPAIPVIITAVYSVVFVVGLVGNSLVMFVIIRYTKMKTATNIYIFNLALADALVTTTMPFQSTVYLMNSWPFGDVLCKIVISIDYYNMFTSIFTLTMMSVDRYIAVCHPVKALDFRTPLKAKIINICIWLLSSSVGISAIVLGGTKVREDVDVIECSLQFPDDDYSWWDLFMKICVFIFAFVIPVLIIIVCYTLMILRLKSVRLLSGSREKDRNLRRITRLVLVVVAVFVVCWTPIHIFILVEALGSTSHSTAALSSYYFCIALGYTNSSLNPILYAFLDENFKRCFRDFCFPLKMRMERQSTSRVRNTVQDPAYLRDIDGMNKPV

Row | SMILES | activation at 1 µM (Human opiate κ receptors [2]) [%] | EC50 (Human opiate κ receptors [2]; GTPγS EC50 (nM)) [nM] | other results
1 | COC(=O)N1CCN(C(=O)Cc2cc(F)cc(F)c2)[C@@H]2[C@@H](N3CCCC3)CCC[C@@H]21.Cl (racemic) [Example 2] | – | – | % binding at 100 nM (Human opiate κ receptors [1]): 41%
2 | O=C(Cc1ccc(Cl)c(Cl)c1)N1CCN(Cc2cnc[nH]2)C2CCCC(N3CCCC3)C21 (stereo not shown) [AA, reference compound] | – | – | activation (% of control) at 1 μM (Human opiate κ receptors [2]): 89 % of control; EC50 (Human opiate κ receptors [2]; [3]): 56 nM
3 | COC(=O)N1CCN(C(=O)Cc2ccc(Cl)c(Cl)c2)C2C(N3CCC(O)C3)CCCC21 (stereo not shown) [Example 11] | 92 | 10 to 100 | activation (% of control) at 1 μM (Human opiate κ receptors [2]; 1 µM): 92 % of control; EC50 (Human opiate κ receptors [2]; EC50 (nM) [35S]GTPγS binding): 11.7 nM
4 | COC(=O)N1CCN(C(=O)Cc2ccc(Cl)c(Cl)c2)C2C(N3CCC(O)C3)CCCC21 (stereo not shown) [Example 53] | – | < 10 | % activation functional assay at 1 μM (Human opiate κ receptors [2]): 97%; activation (% of control) at 1 μM (Human opiate κ receptors [2]; 1 µM): 97 % of control; EC50 (Human opiate κ receptors [2]; EC50 (nM) [35S]GTPγS binding): 6.1 nM
5 | COC(=O)N1CCN(C(=O)Cc2ccc(Cl)c(Cl)c2)[C@@H]2[C@@H](N(C)C)CCC[C@@H]21 [Example 90] | 96 | < 10 | –
6 | CCN(C)[C@H]1CCC[C@H]2[C@@H]1N(C(=O)Cc1ccc(Cl)c(Cl)c1)CCN2C(=O)OC [Example 91] | 106 | < 10 | –
7 | COC(=O)N1CCN(C(=O)Cc2ccc(F)c(Cl)c2)[C@@H]2[C@@H](N3CCCC3)CCC[C@@H]21 [Example 92] | 105 | 10 to 100 | –
8 | COC(=O)N1CCN(C(=O)Cc2ccc(C(F)(F)F)c(Cl)c2)[C@@H]2[C@@H](N3CCCC3)CCC[C@@H]21 [Example 93] | 101 | < 10 | –
9 | COC(=O)N1CCN(C(=O)Cc2ccc(Cl)c(F)c2)[C@@H]2[C@@H](N3CCCC3)CCC[C@@H]21 [Example 94] | 103 | 10 to 100 | –
10 | Cl.O=C(OCc1ccccc1)N1CCN(C(=O)Cc2ccc(Cl)c(Cl)c2)C2C(N3CCCC3)CCCC21 (stereo not shown) [Example 95] | – | – | % activation functional assay at 1 μM (Human opiate κ receptors [2]): 104%; EC50 (Human opiate κ receptors [2]; read-out: GTPγS EC50): < 10 nM
11 | COC(=O)N1CCN(C(=O)Cc2ccc(Cl)c(Cl)c2)[C@@H]2[C@@H](N3CC[C@@H](O)C3)CCC[C@@H]21 [Example 96] | 109 | < 10 | –
12 | COC(=O)N1CCN(C(=O)Cc2ccc(Cl)c(Cl)c2)[C@@H]2[C@@H](N3CC[C@H](O)C3)CCC[C@@H]21 [Example 97] | 113 | < 10 | –
13 | CN(C)S(=O)(=O)N1CCN(C(=O)Cc2ccc(Cl)c(Cl)c2)[C@@H]2[C@@H](N3CCCC3)CCC[C@@H]21 [Example 98] | 105 | < 10 | –
14 | CC(C)NC(=O)N1CCN(C(=O)Cc2ccc(Cl)c(Cl)c2)[C@@H]2[C@@H](N3CCCC3)CCC[C@@H]21 [Example 99] | 100 | < 10 | –
15 | O=C(Cc1ccc(Cl)c(Cl)c1)N1CCN(C(=O)NCc2ccccc2)[C@H]2CCC[C@H](N3CCCC3)[C@H]21 [Example 100] | 105 | < 10 | –
16 | COC(=O)COC(=O)N1CCN(C(=O)Cc2ccc(Cl)c(Cl)c2)[C@@H]2[C@@H](N3CCCC3)CCC[C@@H]21 [Example 101] | 99 | < 10 | –
17 | CS(=O)(=O)N1CCN(C(=O)Cc2ccc(Cl)c(Cl)c2)[C@@H]2[C@@H](N3CCCC3)CCC[C@@H]21 [Example 102] | 106 | < 10 | –
18 | COC(=O)C(=O)N1CCN(C(=O)Cc2ccc(Cl)c(Cl)c2)C2C(N3CCCC3)CCCC21.Cl (stereo not shown) [Example 103] | – | – | % activation functional assay at 1 μM (Human opiate κ receptors [2]): 98%; EC50 (Human opiate κ receptors [2]; read-out: GTPγS EC50): < 10 nM
19 | COC(=O)COC(=O)N1CCN(C(=O)Cc2ccc(Cl)c(Cl)c2)[C@@H]2[C@@H](N3CC[C@@H](O)C3)CCC[C@@H]21 [Example 105] | 116 | < 10 | –
20 | COC(=O)COC(=O)N1CCN(C(=O)Cc2ccc(Cl)c(Cl)c2)[C@@H]2[C@@H](N3CC[C@H](O)C3)CCC[C@@H]21 [Example 106] | 92 | < 10 | –
21 | CC(C)OC(=O)COC(=O)N1CCN(C(=O)Cc2ccc(Cl)c(Cl)c2)[C@@H]2[C@@H](N3CCCC3)CCC[C@@H]21 [Example 107] | 104 | < 10 | –
22 | COC(=O)N1CCN(C(=O)Cc2ccc(C(F)(F)F)c(Cl)c2)[C@@H]2[C@@H](N3CC[C@H](O)C3)CCC[C@@H]21 [Example 108] | 100 | < 10 | –
23 | COC(=O)N1CCN(C(=O)Cc2ccc(F)c(Cl)c2)[C@@H]2[C@@H](N3CC[C@H](O)C3)CCC[C@@H]21 [Example 109] | 110 | < 10 | –

Row | SMILES | activation at 1 µM (Human opiate κ receptors [2]) [%] | EC50 (Human opiate κ receptors [2]; GTPγS EC50 (nM)) [nM] | other results
24 | COC(=O)N1CCN(C(=O)Cc2ccc(F)c(Cl)c2)C2C(N3CCC(O)C3)CCCC21.Cl (stereo not shown) [Example 110] | – | – | % activation functional assay at 1 μM (Human opiate κ receptors [2]): 92%; EC50 (Human opiate κ receptors [2]; read-out: GTPγS EC50): 10 to 100 nM
25 | COC(=O)N1CCN(C(=O)Cc2ccc(C(F)(F)F)c(Cl)c2)[C@@H]2[C@@H](N3CC[C@@H](O)C3)CCC[C@@H]21 [Example 113] | 102 | < 10 | –
26 | COC(=O)N1CCN(C(=O)Cc2ccc(Cl)c(F)c2)C2C(N3CCC(O)C3)CCCC21.Cl (stereo not shown) [Example 115] | – | – | % activation functional assay at 1 μM (Human opiate κ receptors [2]): 103%; EC50 (Human opiate κ receptors [2]; read-out: GTPγS EC50): 10 to 100 nM
27 | CN(C)C(=O)C(=O)N1CCN(C(=O)Cc2ccc(Cl)c(Cl)c2)[C@@H]2[C@@H](N3CCCC3)CCC[C@@H]21.Cl [Example 116] | – | – | % activation functional assay at 1 μM (Human opiate κ receptors [2]): 111%; EC50 (Human opiate κ receptors [2]; read-out: GTPγS EC50): 10 to 100 nM
28 | CC(C)NC(=O)N1CCN(C(=O)Cc2ccc(Cl)c(F)c2)C2C(N3CCC(O)C3)CCCC21.Cl (stereo not shown) [Example 119] | – | – | % activation functional assay at 1 μM (Human opiate κ receptors [2]): 102%; EC50 (Human opiate κ receptors [2]; read-out: GTPγS EC50): 10 to 100 nM
29 | CC(C)NC(=O)N1CCN(C(=O)Cc2ccc(Cl)c(Cl)c2)C2C(N3CCC(O)C3)CCCC21.Cl (stereo not shown) [Example 120] | – | – | % activation functional assay at 1 μM (Human opiate κ receptors [2]): 100%; EC50 (Human opiate κ receptors [2]; read-out: GTPγS EC50): < 10 nM
30 | CS(=O)(=O)N1CCN(C(=O)Cc2ccc(Cl)c(Cl)c2)C2C(N3CCC(O)C3)CCCC21.Cl (stereo not shown) [Example 121] | – | – | % activation functional assay at 1 μM (Human opiate κ receptors [2]): 106%; EC50 (Human opiate κ receptors [2]; read-out: GTPγS EC50): < 10 nM
31 | CS(=O)(=O)N1CCN(C(=O)Cc2ccc(C(F)(F)F)c(Cl)c2)[C@@H]2[C@@H](N3CC[C@H](O)C3)CCC[C@@H]21 [Example 124] | 97 | < 10 | –
32 | COC(=O)N1CCN(C(=O)Cc2ccc(F)c(F)c2)[C@@H]2[C@@H](N3CC[C@H](O)C3)CCC[C@@H]21 [Example 138] | 108 | 10 to 100 | –
33 | COC(=O)N1CCN(C(=O)Cc2ccc(C(F)(F)F)cc2)[C@@H]2[C@@H](N3CC[C@H](O)C3)CCC[C@@H]21 [Example 139] | 104 | < 10 | –
34 | COC(=O)N1CCN(C(=O)Cc2ccc(Cl)cc2)[C@@H]2[C@@H](N3CC[C@H](O)C3)CCC[C@@H]21 [Example 140] | 103 | 10 to 100 | –
35 | COC(=O)N1CCN(C(=O)Cc2ccc(C(F)(F)F)c(F)c2)[C@@H]2[C@@H](N3CC[C@H](O)C3)CCC[C@@H]21 [Example 141] | 99 | < 10 | –
36 | COC(=O)N1CCN(C(=O)Cc2cccc(C(F)(F)F)c2)[C@@H]2[C@@H](N3CC[C@H](O)C3)CCC[C@@H]21 [Example 142] | 106 | 10 to 100 | –
37 | COC(=O)N1CCN(C(=O)Cc2cccc(Cl)c2)[C@@H]2[C@@H](N3CC[C@H](O)C3)CCC[C@@H]21 [Example 143] | 102 | 10 to 100 | –
38 | O=C(c1ccccc1)N1CCN(C(=O)Cc2ccc(Cl)c(Cl)c2)C2C(N3CCCC3)CCCC21 (stereo not shown) [L, reference compound] | – | – | activation (% of control) at 1 μM (Human opiate κ receptors [2]): 74 % of control
39 | CCC(=O)N1CCN(C(=O)Cc2ccc(Cl)c(Cl)c2)C2C(N3CCCC3)CCCC21 (stereo not shown) [N, reference compound] | – | – | activation (% of control) at 1 μM (Human opiate κ receptors [2]): 63 % of control; EC50 (Human opiate κ receptors [2]; [3]): 600 nM
40 | COC(=O)CC(=O)N1CCN(C(=O)Cc2ccc(Cl)c(Cl)c2)C2C(N3CCCC3)CCCC21 (stereo not shown) [P, reference compound] | – | – | activation (% of control) at 1 μM (Human opiate κ receptors [2]): 81 % of control; EC50 (Human opiate κ receptors [2]; [3]): 220 nM
41 | O=C(c1ccccc1)N1CCN(C(=O)Cc2ccc(Cl)c(Cl)c2)C2C(N3CCC(O)C3)CCCC21 (stereo not shown) [R, reference compound] | – | – | activation (% of control) at 1 μM (Human opiate κ receptors [2]): 63 % of control
42 | COC(=O)N1CCN(C(=O)Cc2ccc(Cl)c(Cl)c2)C2C(N3CCC(O)C3)CCCC21 (stereo not shown) [S, reference compound] | – | – | activation (% of control) at 1 μM (Human opiate κ receptors [2]; 1 µM): 91 % of control; EC50 (Human opiate κ receptors [2]; [3]): 85 nM
43 | COC(=O)CC(=O)N1CCN(C(=O)Cc2ccc(Cl)c(Cl)c2)C2C(N3CCC(O)C3)CCCC21 (stereo not shown) [U, reference compound] | – | – | activation (% of control) at 1 μM (Human opiate κ receptors [2]): 86 % of control; EC50 (Human opiate κ receptors [2]; [3]): 170 nM
44 | CCCCN1CCN(C(=O)Cc2ccc(Cl)c(Cl)c2)C2C(N3CCCC3)CCCC21 (stereo not shown) [W, reference compound] | – | – | activation (% of control) at 1 μM (Human opiate κ receptors [2]): 113 % of control; EC50 (Human opiate κ receptors [2]; [3]): 12 nM
45 | COc1ccc(CN2CCN(C(=O)Cc3ccc(Cl)c(Cl)c3)C3C(N4CCCC4)CCCC32)cc1 (stereo not shown) [X, reference compound] | – | – | activation (% of control) at 1 μM (Human opiate κ receptors [2]): 91 % of control; EC50 (Human opiate κ receptors [2]; [3]): 26 nM
